What was measured:
[1] = Dissipation of 14C labelled benzyl alcohol from the injection site; type: in vivo
Excerpt: This finding is indeed surprising for the following reasons. • 1. […] It is believed that the tissue irritation/inflammation was due to the presence of fulvestrant in the form of solid particles. The release profile appeared to be determined by the extent of inflammation/irritation present at the injection site and this was variable and difficult to control.

uterus = conditions: intact adult rats, cited from earlier work
[2] = Solubility of fulvestrant in different solvents; type: physicochemical; conditions: Water, 25° C.
[3] = test system: human breast cancer cells; conditions: block of oestradiol-stimulated growth, human breast cancer cells in vitro; cited from earlier work

Row | SMILES | time to removal from the body after administration [1] | effect on bone density (uterus; at dose giving maximum regression of the uterus) | regression of the uterus (uterus) | SOLUBILITY [2] | potency and effectiveness compared with tamoxifen [3]
1 | OCc1ccccc1 [^14C labelled benzyl alcohol, benzyl alcohol] | ≤ 24 h |  |  |  | 
2 | C[C@]12CC[C@@H]3c4ccc(O)cc4C[C@@H](CCCCCCCCC[S+]([O-])CCCC(F)(F)C(F)(F)F)[C@H]3[C@@H]1CC[C@@H]2O (stereo partly drawn) [fulvestrant, 7α-[9-(4,4,5,5,5-Pentafluoropentylsulphinyl)nonyl]oestra-1,3-5(10)-triene-3,17β-diol] |  | does not adversely affect | maximum regression | 0.001 mgml^−1 | more potent and more effective than tamoxifen
